“Also recorded” adds a separate entry of the source. Like-named read-outs stand apart in the source and are kept apart here.
Experiments:
[1] = tested on: orthodromically evoked field potentials in CA1 zone of rat hippocampal slices; experiment: Orthodromically induced population spikes (field potentials) in CA1 zone of rat hippocampal slices; type: cell-based; settings: for inhibition of orthodromically evoked field potentials by known P2X/P2Y agonists: in the same way as AppCH2ppA, FIG. 8, FIG. 9
Protocol: This study was carried out on 21-day old Wistar rats (WAG/GSto, Moscow, Russia). After rapid decapitation, rat brains were immediately transferred to a Petri dish with chilled (4° C.) solution of the composition 120 mM NaCl, 5 mM KCl, 26 mM NaHCO3, 2 mM MgCl2 and 20 mM glucose. Calcium salts were omitted to reduce possible neuronal damage. The solution was constantly bubbled with 95%O2/5%CO2 gas mixture to maintain pH7.4. Hippocampal slices ([…] thick) were cut manually with a razor blade along the alveolar fibres to preserve the lamellar structure of excitatory connections. During preincubation and experiments, the slices were kept fully submerged in the extracellular solution, pH7.4, comprised of 135 mM NaCl, 5 mM KCl, 26 mM NaHCO3, 1.5 mM CaCl2, 1.5 mM MgCl2, and 20 mM glucose, subjected to continuous bubbling with 95% O2/5% CO2) at 30-31° C. […] (RBI, Natick, Mass., USA) was also included into the extracellular solution during experiments to suppress the inhibitory activity of interneurons. Electrophysiological measurements were recording after at least 2 h of preincubation.
Excitatory postsynaptic currents (EPSCs) were recorded by a standard whole-cell patch clamp technique in the CA1 subfield of the hippocampus in response to stimulation of the Schaffer collateral/commissural pathway. To prevent the spread of electrical activity from area CA3, mini-slices were prepared by making a cut orthogonal to the stratum pyramidale extending to the mossy fibre layer. The intracellular solution, pH 7.2, for patch pipettes was comprised of 100 mM CsF (Merck, Darmstadt, FRG), 40 mM NaH2PO4, 10 mM HEPES-CsOH, 10 mM Tris-HCl. […] Access resistance was monitored throughout the experiments and ranged typically from 6 to 9MΩ. […] Extracellular field potentials were recorded using Ni/Cr electrodes. […] The effects of receptor agonists of antagonists were measured as the mean ratio I/Io where I was the current under the substances action and Io was the current in control saline. […]

[2] = tested on: orthodromically evoked field potentials in CA1 zone of rat hippocampal slices; experiment: as above; type: cell-based
[3] = tested on: excitatory postsynaptic currents in CA1 pyramidal neuron; experiment: Excitatory postsynaptic currents (EPSCs), whole-cell patch clamp in CA1 pyramidal neuron of hippocampal slices; type: cell-based, rat
Protocol: (§1) This study was carried out on 21-day old Wistar rats (WAG/GSto, Moscow, Russia). After rapid decapitation, rat brains were immediately transferred to a Petri dish with chilled (4° C.) solution of the composition 120 mM NaCl, 5 mM KCl, 26 mM NaHCO3, 2 mM MgCl2 and 20 mM glucose. Calcium salts were omitted to reduce possible neuronal damage. The solution was constantly bubbled with 95%O2/5%CO2 gas mixture to maintain pH7.4. Hippocampal slices ([…] thick) were cut manually with a razor blade along the alveolar fibres to preserve the lamellar structure of excitatory connections. […]
(§2) Excitatory postsynaptic currents (EPSCs) were recorded by a standard whole-cell patch clamp technique in the CA1 subfield of the hippocampus in response to stimulation of the Schaffer collateral/commissural pathway. […] Access resistance was monitored throughout the experiments and ranged typically from 6 to 9MΩ. […] Extracellular field potentials were recorded using Ni/Cr electrodes. […] The effects of receptor agonists of antagonists were measured as the mean ratio I/Io where I was the current under the substances action and Io was the current in control saline. […]

[4] = tested on: NMDA-receptor-mediated channels; experiment: NMDA-activated current in isolated hippocampal pyramidal neurons (whole-cell patch clamp); type: cell-based, rat
Protocol: NMDA-receptor-activated currents were evoked by 1-2 sec long co-application of aspartate (ASP) (1 mM) and glycine (10 μM). Vh=−100 mV in Mg^2+ free solution.
Wistar rats (12-17-days old) were decapitated under ether anaesthesia and the hippocampus (or cerebellum) was removed. It was cut into slices (300-500 μm) in a solution containing (in mM): 150 NaCl; 5 KCl; 1.25 NaH2PO4; 26 NaHCO3; 1.1 MgCl2; 10 glucose; pH 7.4. Then the slices were incubated for 10 min at 32° C. with 0.5 mg/ml of protease (type XXIII) from Aspergillus oryzae. Single pyramidal cells from CA1 and CA3 stratum pyramidale layers were isolated by vibrodissociation locally in the stratum pyramidale CA3 and CA1 hippocampal pyramidal neurons were identified by their characteristic form and partially preserved dendritic arborisation.
After isolation the cells were usually suitable for recordings for 2-4 h. Throughout the entire procedure the solutions with the slices were continuously saturated with 95% O2 and 5% CO2 gas mixture to maintain pH 7.4. The tested substances were dissolved in DMSO to a stock concentration of 10 mM and kept frozen at −40° C. in daily aliquots. The substances were dissolved in external saline to their final concentration immediately before the experiments.
NMDA-activated currents in isolated neurons were induced by the step application of aspartate (1 mM) and […] in the “concentration clamp” mode (Krishtal et al., 1983), using the computerized “Pharma-Robot” set-up (Pharma-Robot, Kiev). This equipment allows a complete change of saline within 15 ms. Transmembrane currents were recorded using a conventional patch-clamp technique, in the whole-cell configuration. […] The intracellular solution contained (in mM): 70 Tris-PO4; 5 EGTA; 40 TEA-Cl (tetraethylammonium chloride); 30 Tris-Cl; 5 Mg-ATP; 0.5 GTP; pH 7.2. The composition of extracellular solution was (in mM):. 130 NaCl; 3 CaCl2; 5 KCl; 2 MgCl2; 10 HEPES-NaOH; 0.1 μM TTX; pH 7.4. Recording of the currents was performed using patch-clamp amplifiers (DAGAN, USA). Transmembrane currents were filtered at 3 kHz, stored and analysed with an IBM-PC computer using homemade software. NMDA responses were recorded with a 3 min interval. All experiments were performed at room temperature (19-24° C.).

[5] = tested on: CFA-induced thermal hyperalgesia; experiment: CFA-induced thermal hyperalgesia (Plantar test, paw withdrawal latency); type: in vivo, rat
Protocol: CFA-Induced Thermal Hyperalgesia. Unilateral inflammation was induced by injecting 100 μl of 50% solution of CFA (Sigma) in physiological saline into the plantar surface of the right hind paw of the rat. The hyperalgesia to thermal stimulation was determined 48 h after CFA injections using the same apparatus as described below for the noxious acute thermal assay.
Thermal sensitivity: On each day following mechanical testing, rats will be placed in a thermal testing apparatus (Plantar test, Ugo Basile, Italy), in which they will be free to move. After 30 min of acclimatization, a constant-power IR stimulus will be focused through the glass base on to the sole of the foot, and the latency for reflex foot withdrawal will be recorded automatically via a photoelectric monitor as previously described Hargreaves et al. 1988.
In each test session, each rat (from 6 tested rats) was tested in three sequential trials at approximately 15 min intervals.

[6] = tested on: antidromically induced population spikes in CA1 zone of rat hippocampal slices; experiment: Antidromically induced population spikes in CA1 zone of rat hippocampal slices; type: cell-based
Protocol: as §1, §2

[7] = tested on: orthodromically evoked field potentials in CA1 zone of rat hippocampal slices; settings: cited from earlier work
[8] = tested on: excitatory postsynaptic currents in CA1 pyramidal neuron; settings: cited from earlier work

For `Nc1ncnc2c1ncn2[C@@H]1O[C@H](COP(=O)(O)OP(=O)(O)OP(O)(O)=S)[C@@H](O)[C@H]1O` [ATPγS], the “inhibition of orthodromically evoked field potentials by known P2X/P2Y agonists” value [1] was “unable to inhibit”.
With `Nc1ncnc2c1ncn2[C@@H]1O[C@H](COP(=O)(O)OP(=O)(O)CP(=O)(O)OP(=O)(O)OC[C@H]2O[C@@H](n3cnc4c(N)ncnc43)C(O)C2O)C(O)C1O` (stereo partly shown) [AppCH2ppA] the “effect on amplitude of orthodromically induced population spikes in presence of Ip4I” value ([2]; Ip4I 20 μM, then 7.4 μM (FIG. 10)) was “did hot alter”, the “blocking effect on the orthodromic spikes in presence of PPADS” value ([2]; PPADS 20 μM applied first (FIG. 6)) was “completely abolished” and the “reduction by PTIO of the extent of inhibition of orthodromically evoked field potentials” value ([2]; PTIO 1 mM, then 2.5 μM (FIG. 12)) was “over 50%”. The “inhibition of orthodromically evoked field potentials in presence of adenosine deaminase” value ([2]; adenosine deaminase approx. 2 U/ml, then 7.4 μM) was “eliminated”, the “inhibition of orthodromically evoked field potentials in presence of bicuculine” value ([2]; bicuculine 50 μM, then 7.4 μM) was “unaffected” and the “inhibition of orthodromically evoked field potentials in presence of CPT” value ([2]; cyclopentyl teophylline (CPT) 1 μM, then 7.4 μM (FIG. 7)) was “eliminated”. The “inhibition of orthodromically evoked field potentials in presence of hexamethonium” value ([2]; hexamethonium 100 μM, then 7.4 μM) was “unaffected”, the “inhibition of orthodromically evoked field potentials in presence of strychnine” value ([2]; strychnine 500 nM, then 7.4 μM) was “unaffected” and the EPSC decay ([3]; FIG. 5C) was “unchanged”. For the same compound, the “amplitudes of EPSCs” value ([3]; recorded in CA1 pyramidal neuron, 1.9-7.4 μm (FIG. 5C)) was “remained unchanged”, the “effect on NMDA-activated current in presence of reactive blue” value ([4]; P2Y receptor antagonist reactive blue) was “eliminated” and the “effect on NMDA-activated current in presence of EDTA” value ([4]; chelator of bivalent cations EDTA) was “removed”. For the same compound, the “amplitude of the NMDA-activated current” value ([4]; low micromolar concentrations, concentration-dependent manner) was “increased”, the “effect on NMDA-activated current after pre-treatment with genestein” value ([4]; non-specific tyrosine protein kinase inhibitor genestein) was “abolished” and the “effect on NMDA-activated current in presence of PPADS” value ([4]; purine P2 receptor antagonist PPADS) was “eliminated”. The “effect on orthodromically evoked field potentials” value ([1]; 1.9, 3.7 and 7.4 μm applied in steps, all synaptic pathways incl. CA3-CA1 synapses (FIG. 5A)) was “fast and reversible inhibition”, the CFA-induced thermal hyperalgesia ([5]; 50 μmol/kg s.c.) was “attenuates” and the “thermal hyperalgesia, contra lateral paw” value ([5]; 50 μmol/kg s.c. (FIG. 18)) was “attenuates”. The “paw withdrawal latencies, contra lateral (non-inflamed) paw” value ([5]; 48 h (FIG. 18)) was “increases”, the “paw withdrawal latencies, CFA-injected paw” value ([5]; 48 h after intraplantar CFA (FIG. 17)) was “increases” and the “paw withdrawal latencies for the uninjured paw” value ([5]; at the doses tested, compared with injured paw) was “less effectively altered”. The “thermal hyperalgesia, injured paw” value ([5]; s.c. administration, 48 h after intraplantar CFA (FIG. 17)) was “evidently potent; also recorded: fully blocked”, the “onset of antinociceptive effects in the injured paw after injection” value ([5]; s.c., injured paw) was 3 h and the “amplitudes of antidromic spikes” value ([6]; CA3-CA1 synapses, 1.9-7.4 μm (FIG. 5B)) was “remained unchanged”. For the same compound, the “effect on amplitude of antidromically induced population spikes in presence of Ip4I” value ([6]; Ip4I 20 μM, then 7.4 μM (FIG. 11)) was “did not cause AppCH2ppA to have an effect”.
For `Nc1ncnc2c1ncn2[C@@H]1O[C@H](CO)[C@@H](O)[C@H]1O` [adenosine], the “effect on orthodromic spikes” value ([7]; 5 μM, shown previously (literature)) is listed as “inhibit” and the “effect on EPSC amplitudes” value ([8]; shown previously (literature)) is listed as “diminish”.
For `Nc1ncnc2c1ncn2[C@@H]1O[C@H](COP(=O)(O)CP(=O)(O)OP(=O)(O)O)[C@@H](O)[C@H]1O` [α,β-methylene-ATP], the “inhibition of orthodromically evoked field potentials by known P2X/P2Y agonists” value [1] was “unable to inhibit”.
For `Nc1ncnc2c1ncn2[C@@H]1O[C@H](COP(=O)(O)OP(=O)(O)OP(=O)(O)OP(=O)(O)OC[C@H]2O[C@@H](n3cnc4c(N)ncnc43)[C@H](O)[C@@H]2O)[C@@H](O)[C@H]1O` [Ap4A, diadenosine 5′,5′″-P^1,P^4-tetraphosphate], the “effect on orthodromically evoked field potentials” value ([7]; literature) is given as “inhibition” and the “effect on excitatory postsynaptic currents” value ([8]; literature) is given as “inhibition”.

Reference: US20080319184A1, “Uses of Dinucleotide Polyphosphate Derivatives” (priority 2005, published 2008)
